Assay results: ChEMBL document CHEMBL1201862, “PubChem BioAssay data set” (2004)
Calls of active or inactive are those of the source.

Key:
[1] = microbe, parasite or virus in culture; assay type: functional; conditions: Mycobacterium tuberculosis
[2] = test system: Jurkat; test: antigen receptor-induced NF-kB inhibitors, dose response, Jurkat, luciferase reporter, luminescence, B- and T-cell (AID 489004); assay type: functional, cell-based; conditions: Homo sapiens;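 also: NF-kB luciferase reporter Jurkat cells stimulated with PMA plus ionomycin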
[3] = cytotoxicity in HEK-293T NF-kB-Luc cells, dose response, cytotoxicity control for B/T-cell NF-kB inhibitor project, cell-based, uHTS hits (AID 489019); assay type: functional;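 also: IC50 reflects cytotoxicity as loss of cell viability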
[4] = biological target: T1, Replicative DNA helicase DnaB (Mycobacterium tuberculosis, UniProt P9WMR3); test: DnaB intein splicing inhibitors, dose response, biochemical, cell-free fluorescence (AID 449749); assay type: functional
T1 sequence (P9WMR3 whole entry): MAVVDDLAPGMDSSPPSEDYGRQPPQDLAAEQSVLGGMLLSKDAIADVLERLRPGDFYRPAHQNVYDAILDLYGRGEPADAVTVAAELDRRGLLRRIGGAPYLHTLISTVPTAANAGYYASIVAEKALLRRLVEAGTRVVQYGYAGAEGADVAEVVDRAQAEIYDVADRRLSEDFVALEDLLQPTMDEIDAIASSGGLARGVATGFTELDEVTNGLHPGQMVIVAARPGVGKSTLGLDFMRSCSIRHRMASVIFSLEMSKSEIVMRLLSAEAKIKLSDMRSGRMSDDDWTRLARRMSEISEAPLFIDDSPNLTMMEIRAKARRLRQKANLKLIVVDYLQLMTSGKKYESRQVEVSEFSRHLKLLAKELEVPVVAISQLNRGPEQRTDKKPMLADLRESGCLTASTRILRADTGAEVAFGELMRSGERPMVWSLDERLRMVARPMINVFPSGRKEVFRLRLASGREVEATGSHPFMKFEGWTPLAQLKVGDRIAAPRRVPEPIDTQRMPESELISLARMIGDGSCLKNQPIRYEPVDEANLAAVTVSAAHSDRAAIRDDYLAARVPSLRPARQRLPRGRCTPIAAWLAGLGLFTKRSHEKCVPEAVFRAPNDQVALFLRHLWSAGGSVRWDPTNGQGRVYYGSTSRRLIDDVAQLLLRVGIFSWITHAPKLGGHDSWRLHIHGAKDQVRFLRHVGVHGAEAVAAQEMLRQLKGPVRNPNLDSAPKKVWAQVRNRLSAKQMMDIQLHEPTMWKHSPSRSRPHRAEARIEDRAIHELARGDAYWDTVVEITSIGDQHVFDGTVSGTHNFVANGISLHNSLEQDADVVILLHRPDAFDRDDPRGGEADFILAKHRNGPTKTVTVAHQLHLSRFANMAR

[5] = biological target: T2, Protein RecA (Mycobacterium tuberculosis, UniProt P9WHJ3); test: Fluorescence Cell-Free Homogeneous Dose Retest to Identify Inhibitors of RecA-Intein Splicing Activity. [Related pubchem assays (depositor defined):AID2097, AID2223, AID489010, AID492950]; assay type: functional
T2 sequence (P9WHJ3 whole entry): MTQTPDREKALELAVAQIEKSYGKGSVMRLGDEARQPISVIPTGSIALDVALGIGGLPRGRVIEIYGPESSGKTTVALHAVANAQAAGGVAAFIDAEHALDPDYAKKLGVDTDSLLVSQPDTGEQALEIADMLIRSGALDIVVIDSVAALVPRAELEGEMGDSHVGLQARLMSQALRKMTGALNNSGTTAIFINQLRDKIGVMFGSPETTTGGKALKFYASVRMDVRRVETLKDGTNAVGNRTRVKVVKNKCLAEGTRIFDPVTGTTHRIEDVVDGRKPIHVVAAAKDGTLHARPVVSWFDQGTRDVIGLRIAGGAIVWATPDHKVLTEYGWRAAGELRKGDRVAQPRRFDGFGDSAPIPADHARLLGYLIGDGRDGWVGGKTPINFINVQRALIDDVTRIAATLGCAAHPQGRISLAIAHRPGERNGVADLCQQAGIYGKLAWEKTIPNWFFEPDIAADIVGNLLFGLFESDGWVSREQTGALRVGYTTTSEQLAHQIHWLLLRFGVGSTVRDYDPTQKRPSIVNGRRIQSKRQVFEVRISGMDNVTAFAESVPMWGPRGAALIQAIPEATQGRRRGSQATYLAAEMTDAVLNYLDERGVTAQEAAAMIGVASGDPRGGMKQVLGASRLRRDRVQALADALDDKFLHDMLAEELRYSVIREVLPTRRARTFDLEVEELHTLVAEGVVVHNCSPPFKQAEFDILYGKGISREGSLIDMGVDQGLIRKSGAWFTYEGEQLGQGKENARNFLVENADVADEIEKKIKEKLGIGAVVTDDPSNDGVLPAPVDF

[6] = test system: INS1; test: beta cell apoptosis inhibitors, cytokine rescue, dose response, luminescence, retest (AID 449756); assay type: functional, cell-based; conditions: Rattus norvegicus;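 also: cell death triggered by IL-1 beta plus TNF-alpha plus IFN-gamma mixture; protective hits raise ATP signal compared with cytokine alone wells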
[7] = biological target: T3, Sentrin-specific protease 8 (Homo sapiens, UniProt Q96LD8); assay type: functional
T3 sequence (Q96LD8 whole entry): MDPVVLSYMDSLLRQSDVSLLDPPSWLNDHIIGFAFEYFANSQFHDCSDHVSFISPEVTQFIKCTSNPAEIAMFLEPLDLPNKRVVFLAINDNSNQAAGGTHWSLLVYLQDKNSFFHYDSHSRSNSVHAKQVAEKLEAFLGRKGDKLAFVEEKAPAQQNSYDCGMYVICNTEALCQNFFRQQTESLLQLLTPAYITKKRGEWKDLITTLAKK

[8] = biological target: T3, Sentrin-specific protease 8; assay type: functional; remark: listed apart in the source
[9] = biological target: DNA repair protein RAD52 homolog (Homo sapiens, UniProt P43351); assay type: functional, biochemical
[10] = biological target: T4, Caspase-6 (Homo sapiens, UniProt P55212); test: human caspase-6 inhibitors, dose response, biochemical, VEID-R110 fluorescence, cherry-pick (AID 720632)
T4 sequence (P55212 whole entry): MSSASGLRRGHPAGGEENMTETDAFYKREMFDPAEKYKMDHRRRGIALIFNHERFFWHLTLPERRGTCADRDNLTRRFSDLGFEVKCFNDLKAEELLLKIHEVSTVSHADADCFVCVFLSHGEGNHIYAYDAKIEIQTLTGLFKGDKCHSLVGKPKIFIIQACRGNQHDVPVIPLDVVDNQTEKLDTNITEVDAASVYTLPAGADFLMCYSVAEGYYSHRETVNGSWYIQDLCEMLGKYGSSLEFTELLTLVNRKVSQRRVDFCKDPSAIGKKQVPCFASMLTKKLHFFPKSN

[11] = biological target: T5, Caspase-9 (Homo sapiens, UniProt P55211); test: caspase-9 enzyme inhibition, dose response, selectivity assay for caspase-6 inhibitor project, biochemical, fluorescence, plate reader, cherry-picked samples (AID 743293)
T5 sequence (P55211 whole entry): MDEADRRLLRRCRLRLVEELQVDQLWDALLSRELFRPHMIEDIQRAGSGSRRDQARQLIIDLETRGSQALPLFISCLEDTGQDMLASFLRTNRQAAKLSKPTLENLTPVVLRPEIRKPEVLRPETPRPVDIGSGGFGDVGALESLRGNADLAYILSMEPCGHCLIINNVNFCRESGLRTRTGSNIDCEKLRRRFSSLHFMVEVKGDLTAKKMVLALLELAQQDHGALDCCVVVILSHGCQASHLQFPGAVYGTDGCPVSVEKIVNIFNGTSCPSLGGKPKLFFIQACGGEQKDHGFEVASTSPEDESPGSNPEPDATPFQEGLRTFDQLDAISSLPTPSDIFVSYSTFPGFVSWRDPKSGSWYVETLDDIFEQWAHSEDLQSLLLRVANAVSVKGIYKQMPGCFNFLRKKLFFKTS

[12] = biological target: T6, Caspase-7 (Homo sapiens, UniProt P55210); test: human caspase-7 inhibitors, dose response, selectivity assay for caspase-6 inhibitor project, biochemical, DEVD-R110 fluorescence, cherry-pick (AID 743295)
T6 sequence (P55210 whole entry): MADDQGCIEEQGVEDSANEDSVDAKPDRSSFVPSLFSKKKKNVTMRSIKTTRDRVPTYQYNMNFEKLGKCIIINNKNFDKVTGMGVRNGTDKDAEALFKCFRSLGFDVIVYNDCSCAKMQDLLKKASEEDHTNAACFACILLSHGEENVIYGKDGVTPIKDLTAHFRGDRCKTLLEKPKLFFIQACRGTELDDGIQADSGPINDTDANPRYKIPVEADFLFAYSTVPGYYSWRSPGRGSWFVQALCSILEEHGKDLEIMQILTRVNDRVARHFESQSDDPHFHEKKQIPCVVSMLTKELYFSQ

[13] = biological target: Caspase-8 (Homo sapiens, UniProt Q14790); test: caspase-8 inhibition counter-screen, dose response, selectivity assay for caspase-6 inhibitor project, biochemical, Z-IETD-R110 fluorescence, cherry-picked samples (AID 743294)
Caspase-8, sequence (Q14790 217-374 limits assumed): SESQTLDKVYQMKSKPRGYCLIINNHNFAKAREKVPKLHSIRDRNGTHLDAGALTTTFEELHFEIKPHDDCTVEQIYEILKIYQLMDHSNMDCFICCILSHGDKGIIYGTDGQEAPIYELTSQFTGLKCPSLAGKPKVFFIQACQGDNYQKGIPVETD
Caspase-8, sequence (Q14790 385-479 limits assumed): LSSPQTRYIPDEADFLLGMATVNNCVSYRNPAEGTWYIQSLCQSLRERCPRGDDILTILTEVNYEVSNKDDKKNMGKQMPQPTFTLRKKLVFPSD

DNA repair protein RAD52 homolog, sequence (P43351 whole entry): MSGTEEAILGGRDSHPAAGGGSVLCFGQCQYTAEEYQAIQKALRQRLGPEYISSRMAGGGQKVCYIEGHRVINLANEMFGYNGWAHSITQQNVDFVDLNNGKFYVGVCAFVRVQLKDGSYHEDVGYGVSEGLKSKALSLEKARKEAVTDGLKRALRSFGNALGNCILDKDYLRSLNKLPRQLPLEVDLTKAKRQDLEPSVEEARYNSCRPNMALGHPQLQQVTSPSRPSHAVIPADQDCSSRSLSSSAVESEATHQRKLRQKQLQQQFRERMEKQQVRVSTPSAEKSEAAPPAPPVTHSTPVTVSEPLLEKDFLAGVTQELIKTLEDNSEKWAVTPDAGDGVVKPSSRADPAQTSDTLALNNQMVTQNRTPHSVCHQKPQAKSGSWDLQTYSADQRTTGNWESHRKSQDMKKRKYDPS

## COc1cc(NC(C)CCCN)c2ncccc2c1 (stereo not drawn) [PRIMAQUINE PHOSPHATE]
[1]
  CC50: > 40 µM (active)
[2]
  IC50: 38 µM (inactive)
[3]
  IC50: > 80 µM (inactive)
[4]
  AC50: 9.98 µM (active)
[5]
  EC50: 1.17 µM (active)
[6]
  AC50: 3.83 µM (active)
[7]
  IC50: 0.987 µM (active)
[8]
  IC50: 0.935 µM (active)
[9]
  AC50: 5.55 µM (active)
[10]
  AC50: 1.9 µM (active)
[11]
  AC50: > 70 µM (inactive)
[12]
  AC50: 4.07 µM (active)
[13]
  AC50: 57.9 µM (active)
